Experiments:
Test in all cases: Transport of fluorescent substrates in BacMam-transduced HeLa cells (flow cytometry)
F343C mutant Pgp = F343C mutant Pgp (Homo sapiens, UniProt P08183, C1074A/C1125A/C1227A/C137A/C431A/C717A/C956A/F343C); settings: compared to cysless WT Pgp (taken as 100%), calcein-AM 0.5 µM 10 min, Rh123 […], other substrates 0.5 µM 45 min
Experimental: (§1) The BacMam-Pgp virus (encoding cysless WT and the mutant Pgps) was added to 2.5 million HeLa cells at a titer of 50-60 viral particles per cell in 3 ml of DMEM and incubated at 37°C [30]. After 1 hr DMEM was added to make a total of 20 ml in the flask and these infected cells were further incubated for 3-4 hrs. 10 mM butyric acid was then added and the cells continued to incubate at 37°C. After 24 hrs, the cells were trypsinized, washed, counted and analyzed by flow cytometry for cell surface expression and the function of the wildtype and mutant Pgps.
(§2) The transport function of cysless WT and mutant Pgps was determined using fluorescent compounds with flow cytometry as previously described. […] Cells were washed with cold PBS and resuspended in PBS containing 0.1% BSA before analysis.

F343C/V982C mutant Pgp = F343C/V982C mutant Pgp (Homo sapiens, UniProt P08183, C1074A/C1125A/C1227A/C137A/C431A/C717A/C956A/F343C/V982C); settings: compared to cysless WT Pgp (taken as 100%), calcein-AM 0.5 µM 10 min, Rh123 […], other substrates 0.5 µM 45 min
Experimental: as §1, §2

F728C mutant Pgp = F728C mutant Pgp (Homo sapiens, UniProt P08183, C1074A/C1125A/C1227A/C137A/C431A/C717A/C956A/F728C); settings: compared to cysless WT Pgp (taken as 100%), calcein-AM 0.5 µM 10 min, Rh123 […], other substrates 0.5 µM 45 min
Experimental: as §1, §2

F728C/V982C mutant Pgp = F728C/V982C mutant Pgp (Homo sapiens, UniProt P08183, C1074A/C1125A/C1227A/C137A/C431A/C717A/C956A/F728C/V982C); settings: compared to cysless WT Pgp (taken as 100%), calcein-AM 0.5 µM 10 min, Rh123 […], other substrates 0.5 µM 45 min
Experimental: as §1, §2

F978C mutant Pgp = F978C mutant Pgp (Homo sapiens, UniProt P08183, C1074A/C1125A/C1227A/C137A/C431A/C717A/C956A/F978C); settings: compared to cysless WT Pgp (taken as 100%), calcein-AM 0.5 µM 10 min, Rh123 […], other substrates 0.5 µM 45 min
Experimental: as §1, §2

Q725C mutant Pgp = Q725C mutant Pgp (Homo sapiens, UniProt P08183, C1074A/C1125A/C1227A/C137A/C431A/C717A/C956A/Q725C); settings: compared to cysless WT Pgp (taken as 100%), calcein-AM 0.5 µM 10 min, Rh123 […], other substrates 0.5 µM 45 min
Experimental: as §1, §2

Q725C/V982C mutant Pgp = Q725C/V982C mutant Pgp (Homo sapiens, UniProt P08183, C1074A/C1125A/C1227A/C137A/C431A/C717A/C956A/Q725C/V982C); settings: compared to cysless WT Pgp (taken as 100%), calcein-AM 0.5 µM 10 min, Rh123 […], other substrates 0.5 µM 45 min
Experimental: as §1, §2

V982C mutant Pgp = V982C mutant Pgp (Homo sapiens, UniProt P08183, C1074A/C1125A/C1227A/C137A/C431A/C717A/C956A/V982C); settings: compared to cysless WT Pgp (taken as 100%), calcein-AM 0.5 µM 10 min, Rh123 […], other substrates 0.5 µM 45 min
Experimental: as §1, §2

Y307C mutant Pgp = Y307C mutant Pgp (Homo sapiens, UniProt P08183, C1074A/C1125A/C1227A/C137A/C431A/C717A/C956A/Y307C); settings: compared to cysless WT Pgp (taken as 100%), calcein-AM 0.5 µM 10 min, Rh123 […], other substrates 0.5 µM 45 min
Experimental: as §1, §2

[1] = target: Y307C/Q725C/V982C mutant Pgp (Homo sapiens, UniProt P08183, C1074A/C1125A/C1227A/C137A/C431A/C717A/C956A/Q725C/V982C/Y307C); settings: Y307/Q725C/V982C in HeLa cells; compared to cysless WT Pgp (taken as 100%); calcein-AM 0.5 µM 10 min, Rh123 […], other substrates 0.5 µM 45 min
Experimental: as §1, §2

Y307C/V982C mutant Pgp = Y307C/V982C mutant Pgp (Homo sapiens, UniProt P08183, C1074A/C1125A/C1227A/C137A/C431A/C717A/C956A/V982C/Y307C); settings: compared to cysless WT Pgp (taken as 100%), calcein-AM 0.5 µM 10 min, Rh123 […], other substrates 0.5 µM 45 min
Experimental: as §1, §2

CC(=O)OCOC(=O)CN(CC(=O)OCOC(C)=O)Cc1cc2c(cc1OC(C)=O)Oc1cc(OC(C)=O)c(CN(CC(=O)OCOC(C)=O)CC(=O)OCOC(C)=O)cc1C21OC(=O)c2ccccc21 [CalAM, calcein-AM]
Transport function (F343C mutant Pgp): 90-100%
Transport function (F343C/V982C mutant Pgp): 90-100%
Transport function (F728C mutant Pgp): 90-100%
Transport function (F728C/V982C mutant Pgp): 55-65%
Transport function (F978C mutant Pgp): 90-100%
Transport function (Q725C mutant Pgp): 90-100%
Transport function (Q725C/V982C mutant Pgp): 90-100%
Transport function (V982C mutant Pgp): 90-100%
Transport function (Y307C mutant Pgp): 90-100%
Transport function [1]: 90-100%
Transport function (Y307C/V982C mutant Pgp): 90-100%
